Measured values reported in PubChem BioAssay AID330 (DTP/NCI, 2004).
Several values for one entry are separate records, joined by “and”; a condition that tells them apart may be missing. Equal entries are not always repeated. Inconclusive results and toxic doses are left out. Rule for the calls: active = survival T/C of 150% or more; inactive = T/C below 125% in these data.

Tested on: P388 leukemia ip, CD2F1 mice, survival T/C
Test: NCI In Vivo Anticancer Drug Screen. Data for tumor model P388 Leukemia (intraperitoneal) in CD2F1 (CDF1) mice
Conditions: endpoint: median survival time, higher = longer survival
How it was run: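 Mice carrying the transplanted tumor received test compound or vehicle. Survival was recorded in each group, and the value is the treated-group measurement divided by that of the vehicle-treated control group.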

[1] = dose: 50.0 mg/kg/injection, schedule: Q01DX009 (ip), vehicle: Klucel (hydroxypropylcellulose) (HPC)
[2] = dose: 100.0 mg/kg/injection, schedule: Q01DX009 (ip), vehicle: Klucel (hydroxypropylcellulose) (HPC)
[3] = dose: 200.0 mg/kg/injection, schedule: Q01DX009 (ip), vehicle: Klucel (hydroxypropylcellulose) (HPC)
[4] = dose: 50.0 mg/kg/injection, schedule: Q01DX009 (ip), vehicle: saline with Tween-80
[5] = dose: 100.0 mg/kg/injection, schedule: Q01DX001 (ip), vehicle: saline with Tween-80
[6] = dose: 200.0 mg/kg/injection, schedule: Q01DX001 (ip), vehicle: saline with Tween-80
[7] = dose: 400.0 mg/kg/injection, schedule: Q01DX001 (ip), vehicle: saline with Tween-80
[8] = dose: 50.0 mg/kg/injection, schedule: Q01DX005 (ip), vehicle: Klucel (hydroxypropylcellulose) (HPC)

Measured: T/C

COc1ccccc1CC(C)N (stereo unspecified)
inactive: dose: 20.0 mg/kg/injection, schedule: Q04DX003 (ip), vehicle: saline 110 % of control | dose: 40.0 mg/kg/injection, schedule: Q04DX003 (ip), vehicle: saline 105 % of control | dose: 80.0 mg/kg/injection, schedule: Q04DX003 (ip), vehicle: saline 105 % of control

O=c1n(-c2ccccc2)c(=O)n2n1CC(c1ccccc1)=N2
inactive: dose: 100.0 mg/kg/injection, schedule: Q01DX009 (ip), vehicle: other 99 % of control | dose: 200.0 mg/kg/injection, schedule: Q01DX009 (ip), vehicle: other 91 % of control | dose: 400.0 mg/kg/injection, schedule: Q01DX009 (ip), vehicle: other 89 % of control

COC1CC(O)OC1C(NC(C)=O)SC12CC3CC(CC(C3)C1)C2 (stereo unspecified)
inactive: dose: 100.0 mg/kg/injection, schedule: Q04DX003 (ip), vehicle: Klucel (hydroxypropylcellulose) (HPC) 104 % of control | dose: 200.0 mg/kg/injection, schedule: Q04DX003 (ip), vehicle: Klucel (hydroxypropylcellulose) (HPC) 106 % of control | dose: 400.0 mg/kg/injection, schedule: Q04DX003 (ip), vehicle: Klucel (hydroxypropylcellulose) (HPC) 104 % of control

CCC1=CC2CC(c3cc4c(cc3OC)N(C)C3C(O)(C(=O)NC)C(OC(C)=O)C5(CC)C=CCN6CCC43C65)c3[nH]c4ccccc4c3CCN(C1)C2 (stereo unspecified)
inactive: dose: 0.06 mg/kg/injection, schedule: Q01DX009 (ip), vehicle: water 101 % of control | dose: 0.13 mg/kg/injection, schedule: Q01DX009 (ip), vehicle: water 101 % of control | dose: 0.25 mg/kg/injection, schedule: Q01DX009 (ip), vehicle: water 95 % of control | dose: 0.5 mg/kg/injection, schedule: Q01DX009 (ip), vehicle: water 89 % of control | dose: 1.0 mg/kg/injection, schedule: Q01DX009 (ip), vehicle: water 94 % of control | dose: 2.0 mg/kg/injection, schedule: Q01DX001 (ip), vehicle: water 103 % of control | dose: 2.0 mg/kg/injection, schedule: Q01DX009 (ip), vehicle: water 97 % of control | dose: 4.0 mg/kg/injection, schedule: Q01DX001 (ip), vehicle: water 99 % of control | dose: 8.0 mg/kg/injection, schedule: Q01DX001 (ip), vehicle: water 98 % of control | dose: 16.0 mg/kg/injection, schedule: Q01DX001 (ip), vehicle: water 94 % of control | dose: 25.0 mg/kg/injection, schedule: Q01DX001 (ip), vehicle: other 91 % of control | dose: 32.0 mg/kg/injection, schedule: Q01DX001 (ip), vehicle: water 100 % of control | dose: 100.0 mg/kg/injection, schedule: Q01DX001 (ip), vehicle: other 91 % of control | dose: 200.0 mg/kg/injection, schedule: Q01DX001 (ip), vehicle: other 94 % of control | dose: 400.0 mg/kg/injection, schedule: Q01DX001 (ip), vehicle: other 94 % of control

C=CCn1c(Br)nc2c1c(=O)n(CC)c(=O)n2CC
inactive: dose: 16.0 mg/kg/injection, schedule: Q01DX009 (ip), vehicle: Klucel (hydroxypropylcellulose) (HPC) 107 % of control | dose: 32.0 mg/kg/injection, schedule: Q01DX009 (ip), vehicle: Klucel (hydroxypropylcellulose) (HPC) 107 % of control | [1] 89 % of control | dose: 64.0 mg/kg/injection, schedule: Q01DX009 (ip), vehicle: Klucel (hydroxypropylcellulose) (HPC) 93 % of control | [2] 91 % of control | [3] 94 % of control

CCOC(=O)c1ccc(NC(=O)N2CC(C)OC(C)C2)cc1 (stereo unspecified)
inactive: [4] 87 % of control | dose: 100.0 mg/kg/injection, schedule: Q01DX009 (ip), vehicle: saline with Tween-80 97 % of control | dose: 200.0 mg/kg/injection, schedule: Q01DX009 (ip), vehicle: saline with Tween-80 97 % of control

CC(CCc1ccccc1)C(=O)Nc1ccccc1 (stereo unspecified)
inactive: dose: 100.0 mg/kg/injection, schedule: Q04DX002 (ip), vehicle: saline with Tween-80 99 % of control | dose: 200.0 mg/kg/injection, schedule: Q04DX002 (ip), vehicle: saline with Tween-80 96 % of control | dose: 400.0 mg/kg/injection, schedule: Q04DX002 (ip), vehicle: saline with Tween-80 95 % of control

CC/C(=C(/CC)c1ccc(O)cc1)c1ccc(O)cc1
inactive: dose: 50.0 mg/kg/injection, schedule: Q01DX008 (ip), vehicle: saline with Tween-80 101 % of control | dose: 100.0 mg/kg/injection, schedule: Q01DX008 (ip), vehicle: saline with Tween-80 97 % of control | dose: 200.0 mg/kg/injection, schedule: Q01DX008 (ip), vehicle: saline with Tween-80 106 % of control | dose: 400.0 mg/kg/injection, schedule: Q01DX008 (ip), vehicle: saline with Tween-80 99 % of control

COc1cccc(N2N=NCC2O)c1 (stereo unspecified)
inactive: dose: 60.0 mg/kg/injection, schedule: Q01DX005 (ip), vehicle: saline with Tween-80 104 % of control | dose: 120.0 mg/kg/injection, schedule: Q01DX005 (ip), vehicle: saline with Tween-80 102 % of control | dose: 240.0 mg/kg/injection, schedule: Q01DX005 (ip), vehicle: saline with Tween-80 104 % of control

O=C1OC2(CCCCC2)OC(=O)C1=C/C=C/c1ccc([N+](=O)[O-])o1
inactive: dose: 3.13 mg/kg/injection, schedule: Q01DX009 (ip), vehicle: saline with Tween-80 93 % of control | dose: 6.25 mg/kg/injection, schedule: Q01DX009 (ip), vehicle: saline with Tween-80 88 % of control | dose: 12.5 mg/kg/injection, schedule: Q01DX009 (ip), vehicle: saline with Tween-80 102 % of control | dose: 25.0 mg/kg/injection, schedule: Q01DX009 (ip), vehicle: saline with Tween-80 102 % of control | [4] 100 % of control

CN(C)C1CCCCC1[N+](C)(C)C (stereo unspecified)
inactive: dose: 5.0 mg/kg/injection, schedule: Q01DX009 (ip), vehicle: saline sonified 100 % of control | dose: 10.0 mg/kg/injection, schedule: Q01DX009 (ip), vehicle: saline sonified 95 % of control | dose: 20.0 mg/kg/injection, schedule: Q01DX009 (ip), vehicle: saline sonified 90 % of control

Cc1cc(C)c(C(=O)CCl)c(C)c1C(=O)CCl
inactive: [5] 102 % of control | [6] 110 % of control | [7] 109 % of control

COC(=O)n1sc(SC)nc1=N
inactive: dose: 12.5 mg/kg/injection, schedule: Q01DX005 (ip), vehicle: Klucel (hydroxypropylcellulose) (HPC) 88 % of control | dose: 25.0 mg/kg/injection, schedule: Q01DX005 (ip), vehicle: Klucel (hydroxypropylcellulose) (HPC) 114 % of control | [8] 100 % of control and 114 % of control

Cc1ccc(S(=O)(=O)NCCSSCCNS(=O)(=O)c2ccc(C)cc2)cc1
inactive: [8] 103 % of control | dose: 100.0 mg/kg/injection, schedule: Q01DX005 (ip), vehicle: Klucel (hydroxypropylcellulose) (HPC) 106 % of control | dose: 200.0 mg/kg/injection, schedule: Q01DX005 (ip), vehicle: Klucel (hydroxypropylcellulose) (HPC) 103 % of control

CCCN1c2c3c(O)c4c(O)c(C)c5c(c4c2O)C(=O)C(C)(O/C=C/C(OC)C(C)C(OC(C)=O)C(C)C(O)C(C)C(O)C(C)/C=C/C=C(/C)C(=O)N3C1C)O5 (stereo unspecified)
inactive: dose: 25.0 mg/kg/injection, schedule: Q01DX009 (ip), vehicle: Klucel (hydroxypropylcellulose) (HPC) 96 % of control | [1] 101 % of control | [2] 93 % of control | [3] 90 % of control

COC1=C(C)C(=O)c2c(c(/C=N/NC(N)=S)c(Cl)n2C)C1=O
inactive: [5] 103 % of control | [6] 93 % of control | [7] 96 % of control

CCN(CC)CCNc1ccc(COC(=O)NC)c2oc3ccc(OS(=O)(=O)c4ccc(C)cc4)cc3c(=O)c12
inactive: dose: 25.0 mg/kg/injection, schedule: Q01DX005 (ip), vehicle: water 89 % of control | dose: 50.0 mg/kg/injection, schedule: Q01DX005 (ip), vehicle: water 93 % of control | dose: 100.0 mg/kg/injection, schedule: Q01DX005 (ip), vehicle: water 90 % of control | dose: 200.0 mg/kg/injection, schedule: Q01DX005 (ip), vehicle: water 93 % of control
